Measured values taken from the NIST ThermoML archive (doi:10.1016/j.fluid.2015.12.007).
± gives the expanded uncertainty stated by the source.

Details: 101.33 kPa, Liquid; for speed of sound: Sing-around technique in a fixed-path interferometer; for mass density: Vibrating tube method

Compound | speed of sound (293.15 K) | mass density (293.15 K) | speed of sound (298.15 K) | mass density (298.15 K) | speed of sound (303.15 K) | mass density (303.15 K) | speed of sound (308.15 K) | mass density (308.15 K) | speed of sound (313.15 K) | mass density (313.15 K) | speed of sound (318.15 K) | mass density (318.15 K)
CCCCn1cc[n+](C)c1.COS(=O)(=O)[O-] [1-butyl-3-methylimidazolium methyl sulfate] | 1669.8 ± 3.2 m/s | 1211.97 ± 2.8 kg/m3 | 1657.1 ± 3.2 m/s | 1208.61 ± 2.8 kg/m3 | 1644.6 ± 3.2 m/s | 1205.25 ± 2.8 kg/m3 | 1632.4 ± 3.2 m/s | 1201.89 ± 2.8 kg/m3 | 1620.4 ± 3.2 m/s | 1198.54 ± 2.8 kg/m3 | 1608.8 ± 3.2 m/s | 1195.2 ± 2.8 kg/m3
CC(O)CO (stereo not drawn) [1,2-propanediol] | 1516.4 ± 1.3 m/s | 1035.73 ± 0.14 kg/m3 | 1505.9 ± 1.3 m/s | 1032.03 ± 0.13 kg/m3 | 1493.3 ± 1.3 m/s | 1028.31 ± 0.13 kg/m3 | 1480 ± 1.3 m/s | 1024.55 ± 0.13 kg/m3 | 1466.3 ± 1.3 m/s | 1020.75 ± 0.13 kg/m3 | 1452.7 ± 1.3 m/s | 1016.92 ± 0.13 kg/m3
CCCC[n+]1ccn(C)c1.O=S(=O)([N-]S(=O)(=O)C(F)(F)F)C(F)(F)F | 1238.6 ± 1.2 m/s | 1440.81 ± 0.23 kg/m3 | 1227.4 ± 1.2 m/s | 1435.99 ± 0.23 kg/m3 | 1216.3 ± 1.2 m/s | 1431.2 ± 0.22 kg/m3 | 1205.4 ± 1.2 m/s | 1426.42 ± 0.22 kg/m3 | 1194.7 ± 1.2 m/s | 1421.66 ± 0.22 kg/m3 | 1184.1 ± 1.2 m/s | 1416.91 ± 0.22 kg/m3
CCCCn1cc[n+](C)c1.F[B-](F)(F)F [1-butyl-3-methylimidazolium tetrafluoroborate] | 1576.6 ± 1.2 m/s | 1204.89 ± 0.15 kg/m3 | 1564.9 ± 1.2 m/s | 1201.33 ± 0.15 kg/m3 | 1553.6 ± 1.2 m/s | 1197.78 ± 0.15 kg/m3 | 1542.2 ± 1.2 m/s | 1194.23 ± 0.15 kg/m3 | 1530.9 ± 1.2 m/s | 1190.7 ± 0.15 kg/m3 | 1520 ± 1.2 m/s | 1187.18 ± 0.15 kg/m3
